According to ChEMBL document CHEMBL5620353, “Novel antifungal triazoles with alkynyl-methoxyl side chains: Design, synthesis, and biological activity evaluation” (Eur J Med Chem, 2023):
≈ marks a conversion by molar mass, not a printed value.

Experiments:
Saccharomyces cerevisiae [1] = experiment: Antifungal activity against recombinant Saccharomyces cerevisiae Y2721 overexpressing CpErg11 CpCpr assessed as inhibition of fungal growth incubated for 48 hrs by microbroth dilution method; type: functional
Cytochrome P450 2C9 = Cytochrome P450 2C9 (Homo sapiens, UniProt P11712); experiment: Inhibition of human CYP2C9 using diclofenac as substrate prewarmed for 10 mins followed by NADPH addition and measured after 10 mins by LC-MS/MS analysis; type: ADME
[2] = Metabolic stability in human liver microsomes assessed as intrinsic clearance at 1 uM preincubated for 10 mins followed by NADPH addition and measured upto 60 mins by LC-MS/MS analysis; type: ADME, Microsome; conditions: time < 70 min, read-out: CLH
Saccharomyces cerevisiae [3] = experiment: Antifungal activity against recombinant Saccharomyces cerevisiae Y2301 overexpressing ScErg11 Y140F assessed as inhibition of fungal growth incubated for 48 hrs by microbroth dilution method; type: functional
Candida albicans [4] = experiment: Antifungal activity against fluconazole-resistant Candida albicans 904 assessed as inhibition of fungal growth incubated for 48 hrs by microbroth dilution method; type: functional
Saccharomyces cerevisiae [5] = experiment: Antifungal activity against recombinant Saccharomyces cerevisiae Y2459 overexpressing CaErg11 CaCpr assessed as inhibition of fungal growth incubated for 48 hrs by microbroth dilution method; type: functional
Candida albicans [6] = experiment: Antifungal activity against Candida albicans 10231 assessed as inhibition of fungal growth incubated for 48 hrs by microbroth dilution method; type: functional
Candida albicans [7] = experiment: Antifungal activity against Candida albicans SC5314 assessed as reduction in fungal growth measured after 6 to 24 hrs by optical density based method; type: functional, organism-based; conditions: dose 0.0625-16 µg/ml, time 6-24 hrs
Candida albicans [8] = experiment: Inhibition of biofilm formation in Candida albicans SC5314 at 64 ug/ml incubated for 24 hrs by XTT reduction assay relative to control; type: functional
[Candida] auris = Antifungal activity against fluconazole-resistant Candida auris 891 assessed as inhibition of fungal growth incubated for 48 hrs by microbroth dilution method; type: functional; conditions: Candidozyma auris
Candida albicans [9] = experiment: Antibiofilm activity against Candida albicans SC5314 preformed biofilms at 64 ug/ml incubated for 24 hrs by XTT reduction assay relative to control; type: functional; design: scale not given: the % may be the effect or the level left; conditions: dose 64 µg/ml
Candida tropicalis = experiment: Antifungal activity against Candida tropicalis 8915 assessed as inhibition of fungal growth incubated for 48 hrs by microbroth dilution method; type: functional
Cytochrome P450 2C19 = Cytochrome P450 2C19 (Homo sapiens, UniProt P33261); experiment: Inhibition of human CYP2C19 using mephenytoin as substrate prewarmed for 10 mins followed by NADPH addition and measured after 10 mins by LC-MS/MS analysis; type: ADME
Saccharomyces cerevisiae [10] = experiment: Antifungal activity against recombinant Saccharomyces cerevisiae Y2513 overexpressing ScErg11 Y140H assessed as inhibition of fungal growth incubated for 48 hrs by microbroth dilution method; type: functional
Cytochrome P450 3A4 = Cytochrome P450 3A4 (Homo sapiens, UniProt P08684); experiment: Inhibition of human CYP3A4 using midazolam as substrate prewarmed for 10 mins followed by NADPH addition and measured after 10 mins by LC-MS/MS analysis; type: ADME
Cytochrome P450 1A2 = molecular target: T1, Cytochrome P450 1A2 (Homo sapiens, UniProt P05177); experiment: Inhibition of human CYP1A2 using phenacetin as substrate prewarmed for 10 mins followed by NADPH addition and measured after 10 mins by LC-MS/MS analysis; type: ADME
T1 sequence (P05177 whole entry): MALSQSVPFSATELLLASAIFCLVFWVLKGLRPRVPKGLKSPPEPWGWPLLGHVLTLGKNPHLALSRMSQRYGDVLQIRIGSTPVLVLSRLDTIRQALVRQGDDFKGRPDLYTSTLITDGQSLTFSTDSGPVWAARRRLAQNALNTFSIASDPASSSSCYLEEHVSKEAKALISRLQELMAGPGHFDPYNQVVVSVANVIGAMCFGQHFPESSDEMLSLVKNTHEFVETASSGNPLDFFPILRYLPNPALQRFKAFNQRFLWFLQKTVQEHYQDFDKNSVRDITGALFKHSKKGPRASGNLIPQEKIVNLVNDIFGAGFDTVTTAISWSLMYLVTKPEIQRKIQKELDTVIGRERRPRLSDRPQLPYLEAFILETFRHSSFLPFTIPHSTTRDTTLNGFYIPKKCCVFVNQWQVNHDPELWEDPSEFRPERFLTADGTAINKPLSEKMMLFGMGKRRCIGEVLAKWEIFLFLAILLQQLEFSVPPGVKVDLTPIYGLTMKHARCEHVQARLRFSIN

[11] = Hemolytic activity in rabbit RBC at 64 ug/ml incubated for 1 hr by absorbance based analysis; type: toxicity, cell-based, Oryctolagus cuniculus, Erythrocyte; conditions: rabbit red blood cells, at 64 µg/mL, read-out: Activity
Saccharomyces cerevisiae [12] = experiment: Antifungal activity against recombinant Saccharomyces cerevisiae Y2411 overexpressing ScErg11 assessed as inhibition of fungal growth incubated for 48 hrs by microbroth dilution method; type: functional
Aspergillus fumigatus = experiment: Antifungal activity against Aspergillus fumigatus 7544 assessed as inhibition of fungal growth incubated for 72 hrs by microbroth dilution method; type: functional
Saccharomyces cerevisiae [13] = experiment: Antifungal activity against recombinant Saccharomyces cerevisiae Y2374 overexpressing CgErg11 assessed as inhibition of fungal growth incubated for 48 hrs by microbroth dilution method; type: functional
Nakaseomyces glabratus = experiment: Antifungal activity against Candida glabrata 537 assessed as inhibition of fungal growth incubated for 48 hrs by microbroth dilution method; type: functional
[14] = Cytotoxicity against HUVEC cells assessed as reduction in cell survival incubated for 24 hrs by CCK-8 assay; type: toxicity, cell-based; conditions: human
Cytochrome P450 2D6 = Cytochrome P450 2D6 (Homo sapiens, UniProt P10635); experiment: Inhibition of human CYP2D6 using dextromethorphan as substrate prewarmed for 10 mins followed by NADPH addition and measured after 10 mins by LC-MS/MS analysis; type: ADME
[15] = Metabolic stability in human liver microsomes assessed as half life at 1 uM preincubated for 10 mins followed by NADPH addition and measured upto 60 mins by LC-MS/MS analysis; type: ADME, Microsome; conditions: time < 70 min
Saccharomyces cerevisiae [16] = experiment: Antifungal activity against recombinant Saccharomyces cerevisiae Y2462 overexpressing ScErg11 ScNcp1 assessed as inhibition of fungal growth incubated for 48 hrs by microbroth dilution method; type: functional
Saccharomyces cerevisiae [17] = experiment: Antifungal activity against recombinant Saccharomyces cerevisiae Y525 overexpressing CaMdr1 assessed as inhibition of fungal growth incubated for 48 hrs by microbroth dilution method; type: functional
[18] = Selectivity index, ratio of IC50 for HUVEC cells to MIC for Candida albicans SC5314; type: toxicity; conditions: human, HUVEC cells versus Candida albicans SC5314; read-out: Selectivity Index
Candida albicans [19] = experiment: Antibiofilm activity against Candida albicans SC5314 preformed biofilms incubated for 24 hrs by XTT reduction assay; type: functional, organism-based; conditions: dose 0.25-64 µg/ml
Saccharomyces cerevisiae [20] = experiment: Resistance index, ratio of MIC for recombinant Saccharomyces cerevisiae Y525 overexpressing CaMdr1 to MIC for recombinant Saccharomyces cerevisiae Y2411 overexpressing ScErg11; type: functional
Candida parapsilosis = experiment: Antifungal activity against Candida parapsilosis 22019 assessed as inhibition of fungal growth incubated for 48 hrs by microbroth dilution method; type: functional; conditions: Lodderomyces parapsilosis
Candida albicans [21] = experiment: Antifungal activity against fluconazole-resistant Candida albicans 901 assessed as inhibition of fungal growth incubated for 48 hrs by microbroth dilution method; type: functional
Saccharomyces cerevisiae [22] = experiment: Antifungal activity against recombinant Saccharomyces cerevisiae Y2716 overexpressing CpErg11 Y132F CpCpr assessed as inhibition of fungal growth incubated for 48 hrs by microbroth dilution method; type: functional

Chain of Cytochrome P450 2D6 (P10635 whole entry): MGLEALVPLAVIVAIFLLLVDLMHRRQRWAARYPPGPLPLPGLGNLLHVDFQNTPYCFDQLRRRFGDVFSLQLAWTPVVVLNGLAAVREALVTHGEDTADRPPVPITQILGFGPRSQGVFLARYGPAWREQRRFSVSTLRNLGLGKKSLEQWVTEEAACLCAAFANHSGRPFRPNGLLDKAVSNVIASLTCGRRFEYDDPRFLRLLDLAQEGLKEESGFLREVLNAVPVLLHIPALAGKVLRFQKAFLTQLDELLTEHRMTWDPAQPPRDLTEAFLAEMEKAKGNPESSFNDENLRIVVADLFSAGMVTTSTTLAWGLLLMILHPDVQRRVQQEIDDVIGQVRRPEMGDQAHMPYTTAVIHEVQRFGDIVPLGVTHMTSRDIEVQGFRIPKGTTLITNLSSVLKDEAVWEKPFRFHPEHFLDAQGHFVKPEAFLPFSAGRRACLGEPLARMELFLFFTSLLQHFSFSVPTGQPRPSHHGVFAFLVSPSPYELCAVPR
Chain of Cytochrome P450 2C9 (P11712 whole entry): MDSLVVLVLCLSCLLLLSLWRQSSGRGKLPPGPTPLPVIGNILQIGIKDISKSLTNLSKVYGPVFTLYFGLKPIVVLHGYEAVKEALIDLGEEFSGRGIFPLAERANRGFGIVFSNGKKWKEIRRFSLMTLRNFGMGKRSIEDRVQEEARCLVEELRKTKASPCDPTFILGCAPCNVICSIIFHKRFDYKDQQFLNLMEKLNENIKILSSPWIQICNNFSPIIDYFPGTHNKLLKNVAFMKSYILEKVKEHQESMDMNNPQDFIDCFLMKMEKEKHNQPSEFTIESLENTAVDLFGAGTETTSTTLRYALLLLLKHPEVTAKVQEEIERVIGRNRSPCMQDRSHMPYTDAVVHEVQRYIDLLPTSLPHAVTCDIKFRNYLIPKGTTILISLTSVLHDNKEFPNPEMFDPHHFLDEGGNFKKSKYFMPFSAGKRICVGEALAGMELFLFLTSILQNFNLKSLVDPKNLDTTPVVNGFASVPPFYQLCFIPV
Chain of Cytochrome P450 3A4 (P08684 whole entry): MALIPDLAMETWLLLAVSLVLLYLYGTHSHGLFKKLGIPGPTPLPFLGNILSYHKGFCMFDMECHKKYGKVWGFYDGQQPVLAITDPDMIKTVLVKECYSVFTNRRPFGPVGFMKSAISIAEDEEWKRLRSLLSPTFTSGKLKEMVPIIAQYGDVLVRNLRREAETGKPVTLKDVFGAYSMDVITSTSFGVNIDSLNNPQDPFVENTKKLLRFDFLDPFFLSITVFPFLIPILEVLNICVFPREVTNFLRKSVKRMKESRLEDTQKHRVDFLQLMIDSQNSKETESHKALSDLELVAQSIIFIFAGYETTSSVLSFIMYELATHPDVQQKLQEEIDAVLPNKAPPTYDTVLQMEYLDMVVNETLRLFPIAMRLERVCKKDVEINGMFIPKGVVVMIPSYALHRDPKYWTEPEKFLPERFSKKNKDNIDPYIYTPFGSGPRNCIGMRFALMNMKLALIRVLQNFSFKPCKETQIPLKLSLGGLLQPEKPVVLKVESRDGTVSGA
Chain of Cytochrome P450 2C19 (P33261 whole entry): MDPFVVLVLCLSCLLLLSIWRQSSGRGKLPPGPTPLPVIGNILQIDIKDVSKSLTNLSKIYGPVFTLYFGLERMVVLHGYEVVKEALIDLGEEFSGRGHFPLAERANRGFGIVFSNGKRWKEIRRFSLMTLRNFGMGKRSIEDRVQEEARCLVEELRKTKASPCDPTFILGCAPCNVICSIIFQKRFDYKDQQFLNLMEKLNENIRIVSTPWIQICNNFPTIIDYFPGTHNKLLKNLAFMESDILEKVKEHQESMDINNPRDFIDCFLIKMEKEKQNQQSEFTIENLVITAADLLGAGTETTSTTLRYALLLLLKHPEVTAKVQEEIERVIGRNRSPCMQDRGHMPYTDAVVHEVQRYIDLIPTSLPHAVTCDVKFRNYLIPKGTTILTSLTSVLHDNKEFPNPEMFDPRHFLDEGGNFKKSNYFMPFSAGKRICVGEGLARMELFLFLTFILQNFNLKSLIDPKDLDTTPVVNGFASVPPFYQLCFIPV

Row | SMILES | MIC (Saccharomyces cerevisiae [1]) | IC50 (Cytochrome P450 2C9) | microsomal CLint at 1 µM [2] | MIC (Saccharomyces cerevisiae [3]) | MIC (Candida albicans [4]) | MIC (Saccharomyces cerevisiae [5]) | MIC (Candida albicans [6]) | Activity (Candida albicans [7]) | inhibition at 64 µg/mL (Candida albicans [8]) | MIC ([Candida] auris) | Activity (Candida albicans [9]) | MIC (Candida tropicalis) | IC50 (Cytochrome P450 2C19) | MIC (Saccharomyces cerevisiae [10]) | IC50 (Cytochrome P450 3A4) | IC50 (Cytochrome P450 1A2) | hemolysis at 1 h, 64 ug/ml [11] | MIC (Saccharomyces cerevisiae [12]) | MIC (Aspergillus fumigatus) | MIC (Saccharomyces cerevisiae [13]) | further results
1 | C[C@@H](OCC#Cc1ccc(F)cc1F)[C@](O)(Cn1cncn1)c1ccc(F)cc1F | 0.063 µg/mL | 23 nM | 26.2 µL/min/mg | 0.063 µg/mL | 16 µg/mL (≈ 38.2 µM) | 0.016 µg/mL | 8 µg/mL (≈ 19.1 µM) | Dose-Dependent Effect | 37% | 32 µg/mL (≈ 76.3 µM) | 51.39% | 32 µg/mL (≈ 76.3 µM) | 73 nM | 0.031 µg/mL | 566 nM | 50700 nM | 1.32% | 0.008 µg/mL | 4 µg/mL (≈ 9.54 µM) | 0.063 µg/mL | MIC (Nakaseomyces glabratus): ≤ 0.125 µg/mL; IC50 at 24 h [14]: 76.4 µg/mL (≈ 182 µM); IC50 (Cytochrome P450 2D6): 23800 nM; half-life at 1 µM [15]: 50.8 min; MIC (Saccharomyces cerevisiae [16]): 0.063 µg/mL; MIC (Saccharomyces cerevisiae [17]): 0.25 µg/mL; selectivity ratio [18]: > 500; Activity (Candida albicans [19]): Dose-Dependent Effect; Ratio (Saccharomyces cerevisiae [20]): >=16; MIC (Candida parapsilosis): 0.5 µg/mL (≈ 1.19 µM); MIC (Candida albicans [21]): 32 µg/mL (≈ 76.3 µM); MIC (Saccharomyces cerevisiae [22]): 0.063 µg/mL
2 | C[C@@H](OCC#Cc1ccc(C#N)cc1)[C@](O)(Cn1cncn1)c1ccc(F)cc1F | 0.063 µg/mL | 34 nM | 25.6 µL/min/mg | 0.063 µg/mL | 16 µg/mL (≈ 39.2 µM) | 0.016 µg/mL | 8 µg/mL (≈ 19.6 µM) | Dose-Dependent Effect | 43.9% | 16 µg/mL (≈ 39.2 µM) | 55.46% | ≤ 0.125 µg/mL | 566 nM | 0.016 µg/mL | 607 nM | 42600 nM | 1.22% | 0.008 µg/mL | 1 µg/mL (≈ 2.45 µM) | 0.031 µg/mL | MIC (Nakaseomyces glabratus): ≤ 0.125 µg/mL; IC50 at 24 h [14]: 88.5 µg/mL (≈ 217 µM); IC50 (Cytochrome P450 2D6): 27200 nM; half-life at 1 µM [15]: 54.5 min; MIC (Saccharomyces cerevisiae [16]): 0.031 µg/mL; MIC (Saccharomyces cerevisiae [17]): 0.25 µg/mL; selectivity ratio [18]: > 500; Activity (Candida albicans [19]): Dose-Dependent Effect; Ratio (Saccharomyces cerevisiae [20]): >=16; MIC (Candida parapsilosis): 1 µg/mL (≈ 2.45 µM); MIC (Candida albicans [21]): 16 µg/mL (≈ 39.2 µM); MIC (Saccharomyces cerevisiae [22]): 0.063 µg/mL
3 | C[C@@H](OCC#Cc1ccncc1)[C@](O)(Cn1cncn1)c1ccc(F)cc1F | 0.063 µg/mL | 39 nM | 188 µL/min/mg | 0.063 µg/mL | 32 µg/mL (≈ 83.2 µM) | 0.016 µg/mL | 32 µg/mL (≈ 83.2 µM) | Dose-Dependent Effect | 43.4% | 32 µg/mL (≈ 83.2 µM) | 50.31% | 32 µg/mL (≈ 83.2 µM) | 394 nM | 0.031 µg/mL | 309 nM | 31100 nM | 1.36% | 0.008 µg/mL | 4 µg/mL (≈ 10.4 µM) | 0.063 µg/mL | MIC (Nakaseomyces glabratus): ≤ 0.125 µg/mL; IC50 at 24 h [14]: 64.9 µg/mL (≈ 169 µM); IC50 (Cytochrome P450 2D6): 5810 nM; half-life at 1 µM [15]: 7.35 min; MIC (Saccharomyces cerevisiae [16]): 0.063 µg/mL; MIC (Saccharomyces cerevisiae [17]): 0.25 µg/mL; selectivity ratio [18]: > 500; Activity (Candida albicans [19]): Dose-Dependent Effect; Ratio (Saccharomyces cerevisiae [20]): >=16; MIC (Candida parapsilosis): ≤ 0.125 µg/mL; MIC (Candida albicans [21]): 32 µg/mL (≈ 83.2 µM); MIC (Saccharomyces cerevisiae [22]): 0.063 µg/mL
